US12370152B2, “Pharmaceutical composition for preventing or treating metabolic diseases” (INDUSTRY ACADEMIC COOPERATION FOUNDATION CHOSUN UNIVERSITY, priority 2021, dated 2025)

What was measured:
SIRT1, AMPK and ACC = assay: Western blot of SIRT1, AMPK and ACC in HepG2 cells; format: cell-based
Method: (§1) HepG2 hepatocytes were cultured in low glucose Dulbecco's modified Eagle medium (DMEM) (Gibco, Life Technologies, Grand Island, NY, USA) to which 10% FBS (Gibco, Life Technologies, USA), L-glutamine, and 1% penicillin/streptomycin solution were added. The cells were manipulated in a humidified incubator at 37° C. containing 5% CO2 under a sterile condition. The cells were sub-cultured as soon as they reached confluence. The cells were continuously monitored under a bright-field microscope (Nikon Eclipse TS100, Tokyo, Japan), and the medium was replaced every 3 days. For cell viability assays, the cells were seeded and treated with 0 μM-2000 μM camphorquinone (CQ) for 24 hours, then incubated in MTT solution (0.5 mg/ml) for 2 hours, and then formazan crystals were dissolved using dimethyl sulfoxide (DMSO). Cell viability was evaluated using a spectrophotometer (Multiskan FC, Thermo Fisher Scientific).
(§2) Total proteins were extracted with a RIPA lysis buffer system including phenylmethylsulfonyl fluoride (PMSF), sodium orthovanadate (Na3VO4) and protease inhibitor cocktail (Santa Cruz Biotechnology) at 4° C. for 30 minutes, and the extracted sample was centrifuged at 16,000×g for 20 minutes. The concentration of total proteins was quantified using a Pierce BCA Protein Assay Kit (Thermo Fisher Scientific). The proteins (30 to 50 μg) were loaded and separated through sodium dodecyl sulfate-polyacrylamide gel electrophoresis (SDS-PAGE), and then blotted with a PVDF membrane (GE Healthcare, Germany). In order to prevent nonspecific binding of the primary antibodies, the membrane was blocked with TBST including 1% non-fat dry milk for 1 hour and 30 minutes at room temperature (RT). Then, the membrane was incubated overnight at 4° C. together with each primary antibody. The secondary antibodies were conjugated with horseradish peroxidase and visualized with an enhanced chemiluminescence detection kit (GE Healthcare). Analysis of density measurement was performed using Image J software.

[1] = tested on: SREBP1, FASN, ChREB, CPT1a and CPT1b; assay: qRT-PCR of lipid production and β-oxidation genes in liver of diabetic mouse model; format: in vivo, C57BL/6 mice; details: CQ-L, 10 mg/kg/day i.p., vs HFD mouse group
Method: (§3) 6-week-old male C57BL/6 mice (weight 22±2 g) were purchased from Samtako Bio Korea Co., Ltd. (Osan, Gyeonggi-do, Korea). The mice were maintained at 23 to 25° C. under a 12 h light-dark cycle with free access to food and water in a pathogen-free animal facility center. All animal experiments were approved in accordance with the Chosun University Institutional Animal Care and Use Committee (CIACUC2020-S0009). All animals were fed normal chow pellets (ND, SAM #31, Samtako, Inc.), and went through a period of adjustment for 1 week. During the following week, the animals were randomly classified according to the body weight, and one-third of the animals were classified as normal controls to be fed normal chow pellets throughout the study. On the other hand, the remaining animals were fed a high-fat diet (HFD; 60% Kcal energy as fat) (study diet; #D12492; New Brunswick, NJ 08901 USA) for 2 weeks in order to induce insulin resistance, and the diet was continued until the study ended. Then, STZ (30 mg/kg, i.p.) was administered to the animals for 5 consecutive days from the 4th week to induce T2DM therein. On the other hand, the normal control animals were administered the same volume of citrate buffer instead of the STZ. Blood glucose levels of the animals were measured at the end of week 5, and animals showing a fasting blood glucose level (FBG)≥200 mg/dl were selected for the study. Finally, the animals were divided into the following 4 groups; Group 1: saline-treated normal control mice (Control), Group 2: saline-treated diabetic control mice (HFD), Group 3: camphorquinone (10 mg/kg/day, i.p.)-treated diabetic mice (CQ-L), and Group 4: camphorquinone (30 mg/kg/day, i.p.)-treated diabetic mice (CQ-H). […]
(§4) Total RNA was separated from liver tissue of the mouse model using RNAisoPlus (Takara). Then, total RNA (2.5 μg) was reverse transcribed using a Primescript™ II 1st strand cDNA synthesis kit (Takara), and quantified using a Power SYBR Green PCR Master mix (Applied BioSystems). […]

[2] = tested on: HFD+STZ-induced type 2 diabetic mice; assay: Body weight and liver weight in HFD+STZ-induced type 2 diabetic mice; format: in vivo, C57BL/6 mice; details: CQ-L, 10 mg/kg/day i.p., 3 weeks
Method: as §3, with “study.” for “study. Finally, the animals were divided into the following 4 groups; Group 1: saline-treated normal control mice (Control), Group 2: saline-treated diabetic control mice (HFD), Group 3: camphorquinone (10 mg/kg/day, i.p.)-treated diabetic mice (CQ-L), and Group 4: camphorquinone (30 mg/kg/day, i.p.)-treated diabetic mice (CQ-H).”

LKB1 and ERK = LKB1 and ERK signals in liver tissue of diabetic mouse model; format: in vivo, C57BL/6 mice; details: vs HFD mouse group
Method: as §2
as §3, with “study.” for “study. Finally, the animals were divided into the following 4 groups; Group 1: saline-treated normal control mice (Control), Group 2: saline-treated diabetic control mice (HFD), Group 3: camphorquinone (10 mg/kg/day, i.p.)-treated diabetic mice (CQ-L), and Group 4: camphorquinone (30 mg/kg/day, i.p.)-treated diabetic mice (CQ-H).”

AMPK, SIRT1 and ACC = assay: Western blot of AMPK, SIRT1 and ACC in FFA-treated HepG2 fatty hepatocyte model; format: cell-based; details: FFA-treated hepatocytes, 500 μM CQ 24 hours
Method: (§5) Free fatty acids (FFA) were prepared from a combination of palmitic acid (PA) and oleic acid (OA). In short, stocks of 100 mM palmitic acid and 100 mM oleic acid dissolved in sodium hydroxide were prepared. These stock solutions were conjugated with 10% BSA (1:9) solution. All stock solutions were stored at −20° C. The cells were seeded and attached to a 6-well plate, then the cells were treated with a mixture of 0.2 mM PA and 0.4 mM OA (1:2) for 24 hours or the same volume of 10% BSA solution for 24 hours. FFA was removed the next day and 500 μM of camphorquinone was added to the mixture and left for 24 hours. Thereafter, the plate was used for protein and oil red staining.
as §2

[3] = tested on: HFD+STZ-induced type 2 diabetic mice; assay: Fasting blood glucose in HFD+STZ-induced type 2 diabetic mice; format: in vivo, C57BL/6 mice; details: 3 weeks, vs HFD+STZ-treated mice
Method: as §3, with “study.” for “study. Finally, the animals were divided into the following 4 groups; Group 1: saline-treated normal control mice (Control), Group 2: saline-treated diabetic control mice (HFD), Group 3: camphorquinone (10 mg/kg/day, i.p.)-treated diabetic mice (CQ-L), and Group 4: camphorquinone (30 mg/kg/day, i.p.)-treated diabetic mice (CQ-H).”

LKB1, PGC1a and CRTC2 = assay: Expression of LKB1, PGC1a and CRTC2 in liver of diabetic mouse model; format: in vivo, C57BL/6 mice; details: CQ treatment vs HFD+STZ-treated HFD mouse group
Method: as §3, §4

[4] = tested on: HFD+STZ-induced type 2 diabetic mice; assay: Glucose tolerance test in HFD+STZ-induced type 2 diabetic mice; format: in vivo, C57BL/6 mice; details: 1.5 g/kg d-glucose i.p., within 2 hours, vs HFD mouse group
Method: as §3, with “study.” for “study. Finally, the animals were divided into the following 4 groups; Group 1: saline-treated normal control mice (Control), Group 2: saline-treated diabetic control mice (HFD), Group 3: camphorquinone (10 mg/kg/day, i.p.)-treated diabetic mice (CQ-L), and Group 4: camphorquinone (30 mg/kg/day, i.p.)-treated diabetic mice (CQ-H).”

[5] = tested on: IL1α, IL1β, IL6, p53, TNFα and RAGE; assay: qRT-PCR of inflammatory markers in liver of diabetic mouse model; format: in vivo, C57BL/6 mice; details: CQ-L, 10 mg/kg/day i.p., vs HFD mouse group
Method: 6-week-old male C57BL/6 mice (weight 22±2 g) were purchased from Samtako Bio Korea Co., Ltd. (Osan, Gyeonggi-do, Korea). The mice were maintained at 23 to 25° C. under a 12 h light-dark cycle with free access to food and water in a pathogen-free animal facility center. All animal experiments were approved in accordance with the Chosun University Institutional Animal Care and Use Committee (CIACUC2020-S0009). All animals were fed normal chow pellets (ND, SAM #31, Samtako, Inc.), and went through a period of adjustment for 1 week. During the following week, the animals were randomly classified according to the body weight, and one-third of the animals were classified as normal controls to be fed normal chow pellets throughout the study. […] Blood glucose levels of the animals were measured at the end of week 5, and animals showing a fasting blood glucose level (FBG)≥200 mg/dl were selected for the study. […]
as §4

[6] = tested on: lipid synthesis marker (ChREB) and lipid β-oxidation markers (CES1, CES2 and CPT1A); assay: qRT-PCR of lipid metabolism genes in FFA-treated cell model; format: cell-based
FFA-treated HepG2 cells = assay: Oil Red O staining, lipid accumulation in FFA-treated HepG2 cells; format: cell-based; details: FFA-treated HepG2 cells (0.2 mM PA + 0.4 mM OA 24 hours), then 500 μM CQ 24 hours
Method: as §5
Oil Red O stock solution dissolved in isopropyl alcohol was prepared by magnetic stirring at room temperature for 2 hours, and the prepared solution was stored at room temperature. Then, Oil Red O working solution was prepared by mixing 1.5 parts of stock solution and 1 part of water (3:2), and incubated at 4° C. for 10 minutes. The solution was filtered through a 0.02 μm filter and used within 6 hours. […] The stained lipid droplets were dissolved in 2-propanol, and absorbance at 520 nm was measured to quantify lipid accumulation.

HepG2 cells = assay: MTT assay, cytotoxicity in HepG2 cells; format: cell-based; details: 24 hours
Method: as §1

AMPK and SIRT1 = assay: Immunoblotting of AMPK and SIRT1 in liver tissue of diabetic mouse model; format: in vivo, C57BL/6 mice; details: vs HFD mouse group
Method: as §2
as §3, with “study.” for “study. Finally, the animals were divided into the following 4 groups; Group 1: saline-treated normal control mice (Control), Group 2: saline-treated diabetic control mice (HFD), Group 3: camphorquinone (10 mg/kg/day, i.p.)-treated diabetic mice (CQ-L), and Group 4: camphorquinone (30 mg/kg/day, i.p.)-treated diabetic mice (CQ-H).”

[7] = by treatment concentration of CQ

## c1cc(-c2cnn3cc(-c4ccc(OCCN5CCCCC5)cc4)cnc23)ccn1 [Compound C, reference compound]
SIRT1, AMPK and ACC; CC treatment together with CQ
  CQ-induced ACC protein expression: significantly decreased
  CQ-induced AMPK protein expression: significantly decreased
  CQ-induced SIRT1 protein expression: significantly decreased

## CC12CCC(C(=O)C1=O)C2(C)C (stereo not drawn) [camphorquinone]
[1]
  expression of FASN (lipid production) in liver: significantly decreased
  expression of SREBP1 (lipid production) in liver: significantly decreased
  expression of the lipid β-oxidation gene CPTa in liver: significantly increased
[2]
  body weight: gradually decreased
  liver weight: gradually decreased
LKB1 and ERK; CQ-H, 30 mg/kg/day i.p.
  ERK marker in liver tissue: highly expressed
  LKB1 marker in liver tissue: highly expressed
LKB1 and ERK; CQ-L, 10 mg/kg/day i.p.
  ERK marker in liver tissue: highly expressed
  LKB1 marker in liver tissue: highly expressed
AMPK, SIRT1 and ACC
  activation of ACC: restored
  activation of AMPK: restored
  activation of SIRT1: restored
[3]; CQ-H, 30 mg/kg/day i.p.
  fasting blood glucose levels: significantly decreased
[3]; CQ-L, 10 mg/kg/day i.p.
  fasting blood glucose levels: significantly decreased
LKB1, PGC1a and CRTC2
  expression of CRTC2 in liver: increased
  expression of LKB1 in liver: increased
  expression of PGC1a in liver: increased
[4]; CQ-H, 30 mg/kg/day i.p.
  glucose tolerance: improved
[4]; CQ-L, 10 mg/kg/day i.p.
  glucose tolerance: improved
[5]
  expressions of most inflammatory markers in the liver (IL1α, IL1β, IL6, p53, TNFα and RAGE): significantly decreased
[6]
  expression of lipid β-oxidation marker: increased
  expressions of lipid synthesis markers: decreased
FFA-treated HepG2 cells
  lipid accumulation (Oil red O staining): reduced
SIRT1, AMPK and ACC; CQ at 500 μM, increase was decreased at the high concentration
  SIRT1, AMPK and ACC expression: significant increase
SIRT1, AMPK and ACC; [7]
  ACC expression: significantly increased in a dose-dependent manner
  AMPK expression: significantly increased in a dose-dependent manner
  SIRT1 expression: significantly increased in a dose-dependent manner
HepG2 cells; at a high concentration (above 500 μM; 0-2000 μM tested)
  cell viability (MTT assay): decreased
HepG2 cells; up to 500 μM
  cytotoxicity (MTT assay): No cytotoxicity
AMPK and SIRT1; CQ-H, 30 mg/kg/day i.p.
  AMPK in liver tissue: activated
  SIRT1 in liver tissue: activated
AMPK and SIRT1; CQ-L, 10 mg/kg/day i.p.
  AMPK in liver tissue: activated
  SIRT1 in liver tissue: activated
